Reference: ChEMBL document CHEMBL4316618, “Synthesis and pharmacological evaluation of novel arylpiperazine oxicams derivatives as potent analgesics without ulcerogenicity” (Bioorg Med Chem, 2019)

Legend:
Mus musculus [1] = assay: Analgesic activity in formalin-induced nociception Albino Swiss CD-1 mouse model assessed as time spent on licking formalin injected hind paw during neurogenic phase at 10 mg/kg, ip pretreated for 30 mins followed by formalin induction measured up to 5 mins (reference value: 60.23 +/- 5.12 s); format: functional
Mus musculus [2] = assay: Sedative activity in ip dosed Albino Swiss CD-1 mouse assessed as effect on locomotor activity by measuring reduction in number of light beam crossings treated for 30 mins measured for next 30 mins; format: organism-based; conditions: in vivo, 0.5 h
Mus musculus [3] = assay: Potency index, ratio of piroxicam ED50 to test compound ED50 for analgesic activity in ip dosed formalin-induced nociception Albino Swiss CD-1 mouse model assessed as reduction in time spent on licking formalin injected hind paw during inflammatory phase; format: functional
[4] = Acute toxicity in Albino Swiss CD-1 mouse assessed as mortality at 500 mg/kg, ip measured after 72 hrs relative to control; format: organism-based; conditions: in vivo
Mus musculus [5] = assay: Analgesic activity in formalin-induced nociception Albino Swiss CD-1 mouse model assessed as time spent on licking formalin injected hind paw during neurogenic phase at 20 mg/kg, ip pretreated for 30 mins followed by formalin induction measured up to 5 mins (reference value: 60.23 +/- 5.12 s); format: functional
Mus musculus [6] = assay: Analgesic activity in formalin-induced nociception Albino Swiss CD-1 mouse model assessed as time spent on licking formalin injected hind paw during neurogenic phase at 5 mg/kg, ip pretreated for 30 mins followed by formalin induction measured up to 5 mins (reference value: 60.23 +/- 5.12 s); format: functional
[7] = Acute toxicity in ip dosed Albino Swiss CD-1 mouse measured for 24 hrs; format: organism-based; conditions: in vivo
Mus musculus [8] = assay: Analgesic activity in formalin-induced nociception Albino Swiss CD-1 mouse model assessed as time spent on licking formalin injected hind paw during inflammatory phase at 5 mg/kg, ip pretreated for 30 mins followed by formalin induction measured after 15 to 30 mins (reference value: 138.5 +/- 8.55 s); format: functional
[9] = Neurotoxicity in Albino Swiss CD-1 mouse assessed as motor impairment at 20 mg/kg, ip measured for 1 min at 6 to 24 rpm by rotarod test; format: toxicity, organism-based; conditions: in vivo
[10] = Acute toxicity in Albino Swiss CD-1 mouse assessed as mortality at 1000 mg/kg, ip measured after 72 hrs relative to control; format: organism-based; conditions: in vivo
Mus musculus [11] = assay: Analgesic activity in ip dosed formalin-induced nociception Albino Swiss CD-1 mouse model assessed as reduction in time spent on licking formalin injected hind paw during inflammatory phase pretreated for 30 mins followed by formalin induction measured after 15 to 30 mins; format: functional; conditions: Swiss CD-1, ip
[12] = Acute toxicity in Albino Swiss CD-1 mouse assessed as mortality at 250 mg/kg, ip measured after 72 hrs relative to control; format: organism-based; conditions: in vivo
Mus musculus [13] = assay: Analgesic activity in formalin-induced nociception Albino Swiss CD-1 mouse model assessed as time spent on licking formalin injected hind paw during inflammatory phase at 10 mg/kg, ip pretreated for 30 mins followed by formalin induction measured after 15 to 30 mins (reference value: 138.5 +/- 8.55 s); format: functional
Mus musculus [14] = assay: Analgesic activity in ip dosed formalin-induced nociception Albino Swiss CD-1 mouse model assessed as reduction in time spent on licking formalin injected hind paw during neurogenic phase pretreated for 30 mins followed by formalin induction measured up to 5 mins; format: functional; conditions: Swiss CD-1, ip
Mus musculus [15] = assay: Analgesic activity in formalin-induced nociception Albino Swiss CD-1 mouse model assessed as time spent on licking formalin injected hind paw during inflammatory phase at 20 mg/kg, ip pretreated for 30 mins followed by formalin induction measured after 15 to 30 mins (reference value: 138.5 +/- 8.55 s); format: functional
[16] = Acute toxicity in Albino Swiss CD-1 mouse assessed as mortality at 2000 mg/kg, ip measured after 72 hrs relative to control; format: organism-based; conditions: in vivo
[17] = Ulcerogenic activity in Wistar (Krf:(WI) WU) rat assessed as change in gastric mucosa at 25 mg/kg measured after 24 hrs by stereo microscopic analysis; format: toxicity, organism-based; conditions: in vivo
Mus musculus [18] = assay: Analgesic activity in formalin-induced nociception Albino Swiss CD-1 mouse model assessed as time spent on licking formalin injected hind paw during neurogenic phase at 30 mg/kg, ip pretreated for 30 mins followed by formalin induction measured up to 5 mins (reference value: 60.23 +/- 5.12 s); format: functional
Mus musculus [19] = assay: Analgesic activity in formalin-induced nociception Albino Swiss CD-1 mouse model assessed as time spent on licking formalin injected hind paw during inflammatory phase at 30 mg/kg, ip pretreated for 30 mins followed by formalin induction measured after 15 to 30 mins (reference value: 138.5 +/- 8.55 s); format: functional

O=C(C1=C(O)c2ccccc2S(=O)(=O)N1CC(=O)N1CCN(c2ccccc2)CC1)c1ccccc1
Time (Mus musculus [1]): 34.29 s
ED50 (Mus musculus [2]): 31.55 mg/kg
Ratio ED50 (Mus musculus [3]): 2 - 5
mortality at 72 h [4]: 50%
Time (Mus musculus [5]): 25.83 s
Time (Mus musculus [6]): 41.17 s
LD50 at 24 h [7]: 500 mg/kg
Time (Mus musculus [8]): 81.13 s
Activity [9]: Non-Toxic
mortality at 72 h [10]: 83.3%
ED50 (Mus musculus [11]): 8.85 mg/kg
mortality at 72 h [12]: 16.7%
Time (Mus musculus [13]): 68.86 s
ED50 (Mus musculus [14]): 13.9 mg/kg
Time (Mus musculus [15]): 49.71 s

Cc1ccc(C(=O)C2=C(O)c3ccccc3S(=O)(=O)N2CCCN2CCN(c3ccccc3)CC2)cc1
Time (Mus musculus [1]): 51.17 s
ED50 (Mus musculus [2]): 35.42 mg/kg
Ratio ED50 (Mus musculus [3]): 2 - 5
mortality at 72 h [16]: 0%
Time (Mus musculus [5]): 47.67 s
Time (Mus musculus [6]): 59 s
LD50 at 24 h [7]: > 2000 mg/kg
Time (Mus musculus [8]): 62.57 s
Activity [9]: Non-Toxic
ED50 (Mus musculus [11]): 4.01 mg/kg
Time (Mus musculus [13]): 55.86 s
Time (Mus musculus [15]): 35.33 s

Cc1ccc(C(=O)C2=C(O)c3ccccc3S(=O)(=O)N2CC(=O)N2CCN(c3ccccc3)CC2)cc1
Time (Mus musculus [1]): 39.75 s
ED50 (Mus musculus [2]): 40.34 mg/kg
Ratio ED50 (Mus musculus [3]): 2 - 5
mortality at 72 h [4]: 66.7%
Time (Mus musculus [5]): 31 s
Time (Mus musculus [6]): 44.86 s
Activity [17]: Non-Toxic
LD50 at 24 h [7]: 569 mg/kg
Time (Mus musculus [8]): 90 s
Activity [9]: Non-Toxic
mortality at 72 h [10]: 83.3%
ED50 (Mus musculus [11]): 7.22 mg/kg
mortality at 72 h [12]: 0%
Time (Mus musculus [13]): 46.86 s
ED50 (Mus musculus [14]): 22.8 mg/kg
Time (Mus musculus [15]): 28.86 s

O=C(C1=C(O)c2ccccc2S(=O)(=O)N1CCCN1CCN(c2cccc(C(F)(F)F)c2)CC1)c1ccccc1
Time (Mus musculus [1]): 42.86 s
ED50 (Mus musculus [2]): 38.41 mg/kg
Ratio ED50 (Mus musculus [3]): 2 - 5
mortality at 72 h [16]: 0%
Time (Mus musculus [5]): 35.11 s
Time (Mus musculus [6]): 51.5 s
LD50 at 24 h [7]: > 2000 mg/kg
Time (Mus musculus [8]): 78.5 s
Activity [9]: Non-Toxic
ED50 (Mus musculus [11]): 7.14 mg/kg
Time (Mus musculus [13]): 59.17 s
ED50 (Mus musculus [14]): 27 mg/kg
Time (Mus musculus [15]): 48.6 s

O=C(C1=C(O)c2ccccc2S(=O)(=O)N1CC(=O)N1CCN(c2ncccn2)CC1)c1ccc(Br)cc1
Time (Mus musculus [1]): 31.38 s
ED50 (Mus musculus [2]): 29.89 mg/kg
Ratio ED50 (Mus musculus [3]): 2 - 5
mortality at 72 h [16]: 0%
Time (Mus musculus [5]): 22.44 s
Time (Mus musculus [6]): 44.5 s
Activity [17]: Non-Toxic
LD50 at 24 h [7]: > 2000 mg/kg
Time (Mus musculus [8]): 81.63 s
Activity [9]: Non-Toxic
ED50 (Mus musculus [11]): 8.25 mg/kg
Time (Mus musculus [13]): 63.75 s
ED50 (Mus musculus [14]): 11.9 mg/kg
Time (Mus musculus [15]): 48.6 s

O=C(C1=C(O)c2ccccc2S(=O)(=O)N1CCCN1CCN(c2ccccc2)CC1)c1ccccc1
Time (Mus musculus [1]): 28.25 s
ED50 (Mus musculus [2]): 34.12 mg/kg
Ratio ED50 (Mus musculus [3]): 2 - 5
mortality at 72 h [16]: 0%
Time (Mus musculus [5]): 26.29 s
Time (Mus musculus [6]): 40 s
LD50 at 24 h [7]: > 2000 mg/kg
Time (Mus musculus [8]): 71.6 s
Activity [9]: Non-Toxic
ED50 (Mus musculus [11]): 6.18 mg/kg
Time (Mus musculus [13]): 63 s
ED50 (Mus musculus [14]): 11.6 mg/kg
Time (Mus musculus [15]): 44.14 s

COc1ccccc1N1CCN(C(=O)CN2C(C(=O)c3ccccc3)=C(O)c3ccccc3S2(=O)=O)CC1
Time (Mus musculus [1]): 45.63 s
ED50 (Mus musculus [2]): 32.1 mg/kg
Ratio ED50 (Mus musculus [3]): 2 - 5
mortality at 72 h [16]: 0%
Time (Mus musculus [5]): 38.29 s
Time (Mus musculus [6]): 50.71 s
LD50 at 24 h [7]: > 2000 mg/kg
Time (Mus musculus [8]): 77.29 s
Activity [9]: Non-Toxic
ED50 (Mus musculus [11]): 7.93 mg/kg
Time (Mus musculus [13]): 63.13 s
Time (Mus musculus [15]): 55.71 s

COc1ccccc1N1CCN(CCCN2C(C(=O)c3ccccc3)=C(O)c3ccccc3S2(=O)=O)CC1
Time (Mus musculus [1]): 55.71 s
ED50 (Mus musculus [2]): 33.18 mg/kg
Ratio ED50 (Mus musculus [3]): 2 - 5
mortality at 72 h [16]: 0%
Time (Mus musculus [5]): 51.4 s
Time (Mus musculus [6]): 55.83 s
LD50 at 24 h [7]: > 2000 mg/kg
Time (Mus musculus [8]): 92.17 s
Activity [9]: Non-Toxic
ED50 (Mus musculus [11]): 9.03 mg/kg
Time (Mus musculus [13]): 68.17 s
Time (Mus musculus [15]): 35.86 s

O=C(C1=C(O)c2ccccc2S(=O)(=O)N1CC(=O)N1CCN(c2ccccc2)CC1)c1ccc(F)cc1
Time (Mus musculus [1]): 32 s
ED50 (Mus musculus [2]): 26.15 mg/kg
Ratio ED50 (Mus musculus [3]): 2 - 5
mortality at 72 h [4]: 0%
mortality at 72 h [16]: 100%
Time (Mus musculus [5]): 24.25 s
Time (Mus musculus [6]): 44.8 s
Activity [17]: Non-Toxic
LD50 at 24 h [7]: 957 mg/kg
Time (Mus musculus [8]): 75.78 s
Activity [9]: Non-Toxic
mortality at 72 h [10]: 66.7%
ED50 (Mus musculus [11]): 6.24 mg/kg
Time (Mus musculus [13]): 55.29 s
ED50 (Mus musculus [14]): 12.8 mg/kg
Time (Mus musculus [15]): 30.67 s

CN1C(C(=O)Nc2ccccn2)=C(O)c2ccccc2S1(=O)=O [PIROXICAM]
Time (Mus musculus [1]): 58.71 s
Time (Mus musculus [18]): 49.75 s
Time (Mus musculus [19]): 37.57 s
Time (Mus musculus [5]): 59.16 s
Time (Mus musculus [6]): 61.31 s
Activity [17]: Toxic
LD50 at 24 h [7]: 360 mg/kg
Time (Mus musculus [8]): 116.1 s
ED50 (Mus musculus [11]): 18.9 mg/kg
Time (Mus musculus [13]): 108.25 s
Time (Mus musculus [15]): 67.43 s
